ChEMBL document CHEMBL3864136, “A monocyclic neodysiherbaine analog: Synthesis and evaluation” (Bioorg Med Chem Lett, 2016)

Key:
[1] = target: Glutamate receptor ionotropic, kainate 1 (Homo sapiens, UniProt P39086); assay: Displacement of [3H]kianic acid from recombinant GluK1 kainate receptor (unknown origin) expressed in HEK293 cell membranes measured after 1 hr
[2] = target: Glutamate receptor ionotropic, kainate 2 (Homo sapiens, UniProt Q13002); assay: Displacement of [3H]kianic acid from recombinant GluK2 kainate receptor (unknown origin) expressed in HEK293 cell membranes measured after 1 hr
Glutamate receptor ionotropic, kainate 2, sequence (Q13002 whole entry): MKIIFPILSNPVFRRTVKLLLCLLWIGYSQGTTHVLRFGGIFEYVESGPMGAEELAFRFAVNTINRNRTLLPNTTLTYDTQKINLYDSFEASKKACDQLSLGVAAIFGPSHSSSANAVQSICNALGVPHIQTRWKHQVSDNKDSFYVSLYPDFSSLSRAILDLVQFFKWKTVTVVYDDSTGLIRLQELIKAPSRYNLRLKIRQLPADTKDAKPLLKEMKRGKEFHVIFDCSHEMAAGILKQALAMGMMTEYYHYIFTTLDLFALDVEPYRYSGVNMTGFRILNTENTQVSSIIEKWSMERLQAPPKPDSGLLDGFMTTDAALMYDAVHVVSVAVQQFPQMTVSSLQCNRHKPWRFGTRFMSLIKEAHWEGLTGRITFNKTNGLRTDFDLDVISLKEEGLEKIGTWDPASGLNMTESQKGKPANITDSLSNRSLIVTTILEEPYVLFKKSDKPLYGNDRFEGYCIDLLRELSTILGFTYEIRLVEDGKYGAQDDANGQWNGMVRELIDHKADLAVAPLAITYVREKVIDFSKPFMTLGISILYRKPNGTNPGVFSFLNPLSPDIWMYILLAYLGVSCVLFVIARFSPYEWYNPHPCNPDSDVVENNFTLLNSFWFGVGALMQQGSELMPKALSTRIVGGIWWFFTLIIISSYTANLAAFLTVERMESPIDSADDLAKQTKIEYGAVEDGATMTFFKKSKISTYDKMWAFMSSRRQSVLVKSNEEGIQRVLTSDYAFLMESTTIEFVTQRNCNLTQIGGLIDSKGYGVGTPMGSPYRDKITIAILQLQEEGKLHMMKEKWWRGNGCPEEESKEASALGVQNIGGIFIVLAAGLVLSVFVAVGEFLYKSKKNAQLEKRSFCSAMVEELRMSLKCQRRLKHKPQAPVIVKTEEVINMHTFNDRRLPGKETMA

Glutamate receptor ionotropic, kainate 1, sequence (P39086 whole entry): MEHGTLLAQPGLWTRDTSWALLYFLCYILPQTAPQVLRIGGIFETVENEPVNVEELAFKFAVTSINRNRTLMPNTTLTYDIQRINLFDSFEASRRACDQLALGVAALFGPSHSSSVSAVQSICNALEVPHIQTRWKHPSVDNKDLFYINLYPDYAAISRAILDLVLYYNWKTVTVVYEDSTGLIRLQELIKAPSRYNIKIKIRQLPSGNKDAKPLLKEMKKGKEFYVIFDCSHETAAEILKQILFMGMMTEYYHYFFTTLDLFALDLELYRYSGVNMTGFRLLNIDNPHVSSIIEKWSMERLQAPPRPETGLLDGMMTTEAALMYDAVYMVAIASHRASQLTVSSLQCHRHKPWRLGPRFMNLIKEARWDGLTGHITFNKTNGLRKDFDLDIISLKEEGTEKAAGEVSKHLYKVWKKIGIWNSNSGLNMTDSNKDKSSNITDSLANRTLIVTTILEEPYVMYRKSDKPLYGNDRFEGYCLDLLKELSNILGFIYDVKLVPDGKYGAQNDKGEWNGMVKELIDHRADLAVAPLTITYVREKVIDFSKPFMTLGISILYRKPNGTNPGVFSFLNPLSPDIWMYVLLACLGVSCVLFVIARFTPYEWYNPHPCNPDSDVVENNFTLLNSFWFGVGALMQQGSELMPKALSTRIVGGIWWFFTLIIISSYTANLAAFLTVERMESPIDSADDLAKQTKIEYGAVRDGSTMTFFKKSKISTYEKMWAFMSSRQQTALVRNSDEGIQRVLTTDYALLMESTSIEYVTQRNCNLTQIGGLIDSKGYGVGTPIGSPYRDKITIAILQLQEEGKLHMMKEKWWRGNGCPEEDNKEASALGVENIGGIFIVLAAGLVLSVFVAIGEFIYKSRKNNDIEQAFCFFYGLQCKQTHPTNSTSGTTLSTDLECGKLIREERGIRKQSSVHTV

SMILES: CN[C@H]1[C@H]2O[C@@](C[C@H](N)C(=O)O)(C(=O)O)C[C@H]2OC[C@H]1O [DYSIHERBAINE]
- Ki [1]: 0.74 nM
- Ki [2]: 1.2 nM
